One test deals with yeast α-glucosidase. The note with it: against yeast α-glucosidase; cited from earlier work.
The target in another test is T1, Mtb GlgE (Mycobacterium tuberculosis, UniProt P9WQ17).
T1 sequence (P9WQ17 1-701): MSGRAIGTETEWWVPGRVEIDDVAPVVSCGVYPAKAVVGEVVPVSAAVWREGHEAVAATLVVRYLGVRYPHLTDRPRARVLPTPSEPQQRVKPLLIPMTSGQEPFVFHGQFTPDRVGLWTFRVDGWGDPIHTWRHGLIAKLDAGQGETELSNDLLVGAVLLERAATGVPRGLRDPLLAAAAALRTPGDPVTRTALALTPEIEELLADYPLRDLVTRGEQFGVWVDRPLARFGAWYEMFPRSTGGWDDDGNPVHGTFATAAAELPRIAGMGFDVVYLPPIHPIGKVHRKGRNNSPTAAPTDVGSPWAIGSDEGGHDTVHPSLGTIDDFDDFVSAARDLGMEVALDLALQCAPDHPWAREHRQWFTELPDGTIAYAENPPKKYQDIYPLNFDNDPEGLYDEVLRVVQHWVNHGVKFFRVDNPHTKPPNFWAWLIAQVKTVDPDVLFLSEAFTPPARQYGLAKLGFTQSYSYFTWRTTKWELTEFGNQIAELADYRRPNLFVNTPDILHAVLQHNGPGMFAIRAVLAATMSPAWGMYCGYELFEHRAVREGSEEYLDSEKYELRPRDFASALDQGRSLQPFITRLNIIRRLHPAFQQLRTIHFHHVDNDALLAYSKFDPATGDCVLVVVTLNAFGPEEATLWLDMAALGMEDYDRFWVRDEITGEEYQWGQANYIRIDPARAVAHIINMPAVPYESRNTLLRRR
The experiment in a line: GlgE-coupled enzyme assay utilizing PNP. The test is classed as biochemical.

As usually defined, the Ki is a measure of affinity in units of concentration, obtained from inhibition or displacement.

As to 5-amino-5-deoxy-D-glucose [Compound 1], the Ki on yeast α-glucosidase was 6.3 µM.

On to `OC[C@H]1N[C@H](CO)[C@@H](O[C@H]2O[C@H](CO)[C@@H](O)[C@H](O)[C@H]2O)[C@@H]1O` [Compound 9, 2,5-dideoxy-3-O-α-D-glucopyranosyl-2,5-imino-D-mannitol], for which, on Mtb GlgE, the affinity, expressed as Ki, was 237 ± 27 µM.

Values taken from article PMC4201354 (The Journal of Organic Chemistry, 2014).
